Values of other authors in patent US6476002B1 (priority 1997, dated 2002).

Key:
[1] = system: rats with collagen arthritis; conditions: reported by Peacock et al. 1992
wound healing = conditions: from literature / copending application

SMILES: CO[C@@H]1[C@H](OC(=O)NC(=O)CCl)CC[C@]2(CO2)[C@H]1[C@@]1(C)O[C@@H]1CC=C(C)C [AGM-1470]
- joint swelling in rats with collagen arthritis [1]: reduces joint swelling
- effect on wound healing (wound healing): inhibits wound healing
